Consider two compounds from patent EP0103636B1, “USE OF OPIUM ANTAGONISTS FOR THE MANUFACTURE OF MEDICAMENTS FOR CONTROLLING GASTROINTESTINAL DYSMOTILITY” (ROCKEFELLER UNIVERSITY, priority 1982, dated 1983).

Each structure is given as a SMILES string.

For data set [1], the system named is opioid receptors. Particulars: Wikler, A., Int. J. of the Addictions 12(7) 869, 1977; cited from earlier work.
Data set [2] deals with chronic constipation. In words: Example II: stool weight of a second patient with chronic constipation given naloxone. The data set is classed as in vivo, human. An excerpt: A second patient with a history of over twenty years of chronic constipation, intractable to laxatives, who for the past several months was only relieved by enema treatment was admitted to the hospital and placed on a high residue diet.

Data set [3] is described as follows: Adverse effects by clinical examination, blood and urine analysis in Examples I and II. It is filed as in vivo, human. From the text:
Samples of the patient's blood and urine were collected each day and subjected to analysis.

Data set [4] deals with chronic constipation. The experiment in a line: Table 1: five inpatient and outpatient studies on Patient Number 1 (chronic constipation): fecal weight, fecal fat, symptoms. It is filed as in vivo, human. An excerpt:
The tables set forth the significant details and results of a number of studies conducted with different patients suffering from various forms of intestinal dysmotility. […] The first study was of two days duration. The lengths of subsequent studies are as indicated.
The reports Tables 1 to 5 are for patients with chronic constipation. Those in Tables 6, 7 and 8 are for patients with irritable bowel syndrome.

In data set [5] the test system is chronic constipation. In words: Example I: stool weight of a patient with chronic constipation given naloxone (single blind, placebo first). It is filed as in vivo, human. As to the method: A person with a history of chronic constipation for a period of over twenty years, requiring daily use of large doses of laxatives plus frequent enemas, was admitted to the research hospital on day one at approximately 4:00 p.m. They were given a standard laxative regimen documented to be inadequate to effect a spontaneous bowel movement, and placed on a high residue diet.
During the first 24 hours they were treated with a placebo (Infusion A) according to the following schedule:
The total dosage per day was 21.6 mg.
During the five days that the patient was under hospital care the stools were collected and weighed. The results were as follows:
The experiment was conducted as a single blind. The patient was not aware of whether they were receiving a placebo or the active agent.

Where [6] appears, read: Day 1, 29.2 mg naloxone, intravenous.
Setting [7] is: Patient Number 1, Study #1 (inpatient), i.v., Study Day 2, total 24 hour dose 29.2 mg.
Setting [8] is: Patient Number 1, Study #2 (inpatient), p.o., Study Day 1, total 24 hour dose 21.6 mg.
Setting [9] is: Patient Number 1, Study #2 (inpatient), p.o., Study Day 2, total 24 hour dose 21.6 mg.
[10] abbreviates: Patient Number 1, Study #2 (inpatient), p.o., Study Day 3, total 24 hour dose 21.6 mg.
[11] abbreviates: Day 2, naloxone intravenous (29.2 mg per Table 1).
The mark [12] stands for this setting: Day 3, naloxone oral 21.6 mg per day.
Setting [13] is: Day 4, naloxone oral 21.6 mg per day.
The mark [14] stands for this setting: Day 5, naloxone oral 21.6 mg per day.

As to `O=C1CC[C@@]2(O)[C@H]3Cc4ccc(O)c5c4[C@@]2(CCN3CC2CC2)[C@H]1O5` [Naltrexone, N-cyclopropylmethyl-14-hydroxydihydronormorphinone], in data set [1], the agonistic activity entry is given as “slight agonistic activity”.

Turning to `C=CCN1CC[C@]23c4c5ccc(O)c4O[C@H]2C(=O)CC[C@@]3(O)[C@H]1C5` [naloxone, N-allyl-14-hydroxydihydronormorphinone], the “STOOL WEIGHT GRAMS Wet Weight” value in data set [2] (setting [6]) came to 84 GRAMS; in data set [2] (Day 3, 14.4 mg naloxone, oral), 35 GRAMS; in data set [2] (Day 4, 21.6 mg naloxone, oral), 125 GRAMS; in data set [2] (Day 5, 21.6 mg naloxone, oral), 230 GRAMS; in data set [2] (Day 6, 7.2 mg naloxone, oral), 34 GRAMS; in data set [5] (setting [11]), 649 Grams. Further, the figures for the “STOOL WEIGHT GRAMS Wet Weight” value in data set [5] (setting [12]), in data set [5] (setting [13]) and in data set [5] (setting [14]) were 985 Grams, 997 Grams and 806 Grams, respectively. The “Stool Weight Grams Dry Weight” value in data set [2] (setting [6]) is given as 18.5 GRAMS; in data set [2] (Day 3, 14.4 mg naloxone, oral), 8.2 GRAMS; in data set [2] (Day 4, 21.6 mg naloxone, oral), 66.4 GRAMS; in data set [2] (Day 5, 21.6 mg naloxone, oral), 82.4 GRAMS; in data set [5] (setting [11]), 52 Grams; in data set [5] (setting [12]), 77 Grams. The entries for the “Stool Weight Grams Dry Weight” value in data set [5] (setting [13]) and in data set [5] (setting [14]) were 77 Grams and 65 Grams, respectively. Also, the “adverse effects (analysis of blood and urine collected each day)” value in data set [3] (Example I patient, naloxone intravenous then oral 21.6 mg per day) is “No adverse effects”. Also, in data set [3] (Example II patient, naloxone 29.2 mg intravenous, then 7.2 to 21.6 mg oral), the “adverse effects (clinical examinations, blood or urine analysis)” value is “No adverse effects”. Moreover, the “Fecal Dry Wt. (gm)” value was determined as 52 gm in data set [4] (setting [7]), 77 gm in data set [4] (setting [8]), 77 gm in data set [4] (setting [9]) and 65 gm in data set [4] (setting [10]). Besides, the “Fecal Wet Wt. (gm)” value came out at 649 gm in data set [4] (setting [7]); 985 gm in data set [4] (setting [8]); 997 gm in data set [4] (setting [9]); 806 gm in data set [4] (setting [10]); 775 gm in data set [4] (Patient Number 1, Study #4 (inpatient), i.v., Study Day 2, total 24 hour dose 29.2 mg); 859 gm in data set [4] (Patient Number 1, Study #4 (inpatient), i.v., Study Day 3, total 24 hour dose 29.2 mg). Besides, the “Symptoms, Signs, Comments” value was “Marked improvement” in data set [4] (setting [7]); “Marked improvement” in data set [4] (setting [8]); “Marked improvement” in data set [4] (setting [9]); “Marked improvement” in data set [4] (setting [10]); “Average day” in data set [4] (Patient Number 1, Study #3 (outpatient), p.o., Study Day 1, total 24 hour dose 21.6 mg); “Better than average day” in data set [4] (Patient Number 1, Study #3 (outpatient), p.o., Study Day 2, total 24 hour dose 21.6 mg). The “Symptoms, Signs, Comments” value is listed as “Much better than average day” in data set [4] (Patient Number 1, Study #3 (outpatient), p.o., Study Day 3, total 24 hour dose 21.6 mg); “Much better than average” in data set [4] (Patient Number 1, Study #5 (outpatient), route not given, Study Day 1, total 24 hour dose 21.6 mg); “Much better than average” in data set [4] (Patient Number 1, Study #5 (outpatient), route not given, Study Day 2, total 24 hour dose 21.6 mg); “Much better than average” in data set [4] (Patient Number 1, Study #5 (outpatient), route not given, Study Day 3, total 24 hour dose 21.6 mg).
